Data reported in US20020052295A1, “Diacyl derivatives of propylene diamine having herbicidal activity” (priority 1999, published 2002).

How the values were obtained:
Settings in all cases: lowest tested rate giving 80% or greater inhibition, approx. 14 days after planting and treating, greenhouse
SOLNI = assay: Pre-emergence herbicidal activity on SOLNI (black nightshade); assay type: in vivo, Solanum nigrum
Text: (§1) All such uses, and the biological activity enabling such uses, are embraced by the term “herbicidal” herein. Tables 15 and 16 summarize results of tests conducted as described below to determine the pre-emergence herbicidal activity, in the form of a GR80 value, of illustrative compounds of this invention. […] Where herbicidal activity was evident but 80% inhibition was not achieved at the highest rate tested (typically 1000 g/ha), an asterisk (*) is shown in the following tables. Herbicidal activity evident in the form of symptoms of phytotoxicity, in the absence of at least 80% inhibition at any rate, is indicated in the tables by “phyto”. A blank cell in the following tables indicates no herbicidal or phytotoxic response at any rate tested.
(§2) The pre-emergence tests were conducted by the following procedure. Topsoil was sieved to pass through a 1.27 cm screen. Fertilizer was added to the topsoil and the mixture was then sterilized by heating. The topsoil mixture was placed in a pot and compacted to a depth of 1.0 to 1.25 cm from the top of the pot. Seeds of each of several monocotyledonous and dicotyledonous annual plant species were placed on top of the soil. Additional soil was subsequently placed over the seeds to level-fill the pot. A known amount of each test compound dissolved or suspended in an appropriate organic solvent was diluted with a 50:50 mix of acetone and water and applied to the surface of the soil. After treatment the plants were placed in a greenhouse with a 30/21° C. day/night temperature regime where they received 0.64 cm of overhead irrigation. All subsequent watering consisted of a light overhead mist and/or subirrigation as needed for germination and growth.
(§3) Approximately 14 days after planting and treating, the plants were observed and herbicidal efficacy recorded as percent inhibition by comparison with untreated plants.
(§4) The plant species usually regarded as weeds which were utilized in the tests are identified in the tables below according to the following legend, in which “d” indicates a dicotyledonous species and “m” a monocotyledonous species. All monocotyledonous species included in the tests herein are grasses.

CIRAR = assay: Pre-emergence herbicidal activity on CIRAR (canada thistle, seedling); assay type: in vivo, Cirsium arvense
Text: as §1, §2, §3, §4

AMARE = assay: Pre-emergence herbicidal activity on AMARE (redroot pigweed); assay type: in vivo, Amaranthus retroflexus
Text: as §1, §2, §3, §4

DATST = assay: Pre-emergence herbicidal activity on DATST (jimsonweed); assay type: in vivo, Datura stramonium
Text: as §1, §2, §3, §4

SETFA = assay: Pre-emergence herbicidal activity on SETFA (giant foxtail); assay type: in vivo, Setaria faberi
Text: as §1, §2, §3, §4

CHEAL = assay: Pre-emergence herbicidal activity on CHEAL (common lambsquarters); assay type: in vivo, Chenopodium album
Text: as §1, §2, §3, §4

PANDI = assay: Pre-emergence herbicidal activity on PANDI (fall panicum); assay type: in vivo, Panicum dichotomiflorum
Text: as §1, §2, §3, §4

DIGSA = assay: Pre-emergence herbicidal activity on DIGSA (large crabgrass); assay type: in vivo, Digitaria sanguinalis
Text: as §1, §2, §3, §4

POROL = assay: Pre-emergence herbicidal activity on POROL (common purslane); assay type: in vivo, Portulaca oleracea
Text: as §1, §2, §3, §4

CONAR = assay: Pre-emergence herbicidal activity on CONAR (field bindweed); assay type: in vivo, Convolvulus arvensis
Text: as §1, §2, §3, §4

ECHCG = assay: Pre-emergence herbicidal activity on ECHCG (barnyardgrass); assay type: in vivo, Echinochloa crus-galli
Text: as §1, §2, §3, §4

ABUTH = assay: Pre-emergence herbicidal activity on ABUTH (velvetleaf); assay type: in vivo, Abutilon theophrasti
Text: as §1, §2, §3, §4

SORHA = assay: Pre-emergence herbicidal activity on SORHA (johnsongrass, seedling); assay type: in vivo, Sorghum halepense
Text: as §1, §2, §3, §4

BRAPP = assay: Pre-emergence herbicidal activity on BRAPP (broadleaf signalgrass); assay type: in vivo, Brachiaria platyphylla
Text: as §1, §2, §3, §4

PANMI = assay: Pre-emergence herbicidal activity on PANMI (wild proso millet); assay type: in vivo, Panicum miliaceum
Text: as §1, §2, §3, §4

| Compound | Pre-emergence activity (GR80) on SOLNI (SOLNI) | Pre-emergence activity (GR80) on CIRAR (CIRAR) | Pre-emergence activity (GR80) on AMARE (AMARE) | Pre-emergence activity (GR80) on DATST (DATST) | Pre-emergence activity (GR80) on SETFA (SETFA) | Pre-emergence activity (GR80) on CHEAL (CHEAL) | Pre-emergence activity (GR80) on PANDI (PANDI) | Pre-emergence activity (GR80) on DIGSA (DIGSA) | Pre-emergence activity (GR80) on PORAL (POROL) | Pre-emergence activity (GR80) on CONAR (CONAR) | Pre-emergence activity (GR80) on ECHCG (ECHCG) | Pre-emergence activity (GR80) on ABUTH (ABUTH) | Pre-emergence activity (GR80) on SORHA (SORHA) | Pre-emergence activity (GR80) on BRAPP (BRAPP) | Pre-emergence activity (GR80) on PANMI (PANMI) |
| --- | --- | --- | --- | --- | --- | --- | --- | --- | --- | --- | --- | --- | --- | --- | --- |
| CC(CNC(=O)c1cccc(C(F)(F)F)c1)NC(=O)c1cccc(C(F)(F)F)c1I (stereo not drawn) [Example 15] | * (Where herbicidal activity was evident but 80% inhibition was not achieved at the highest rate tested (typically 1000 g/ha), an asterisk (*) is shown) | phyto | 64 g/ha | * (Where herbicidal activity was evident but 80% inhibition was not achieved at the highest rate tested (typically 1000 g/ha), an asterisk (*) is shown) | phyto | 125 g/ha | phyto | phyto | 500 g/ha | phyto | phyto |  |  |  |  |
| CC(CNC(=O)c1cccc(C(F)(F)F)c1)NC(=O)c1cccc(F)c1Cl (stereo not drawn) [Example 37] | 250 g/ha | 250 g/ha | 64 g/ha | 250 g/ha | 250 g/ha | 125 g/ha | 250 g/ha | 250 g/ha | 64 g/ha | 250 g/ha | 1000 g/ha | 250 g/ha | 1000 g/ha | 500 g/ha | 500 g/ha |
| CC(CNC(=O)c1cccc(C(F)(F)F)c1)NC(=O)c1cccc(Br)c1F (stereo not drawn) [Example 56] | 64 g/ha | 32 g/ha | 64 g/ha | 250 g/ha | 125 g/ha | 32 g/ha | 250 g/ha | 64 g/ha | 32 g/ha | * (Where herbicidal activity was evident but 80% inhibition was not achieved at the highest rate tested (typically 1000 g/ha), an asterisk (*) is shown) | 750 g/ha | 500 g/ha | 750 g/ha | 500 g/ha | 125 g/ha |
| Cc1c(Br)cccc1C(=O)NC(C)CNC(=O)c1cccc(C(F)(F)F)c1 (stereo not drawn) [Example 57] | 250 g/ha | 500 g/ha | 64 g/ha | 125 g/ha | 250 g/ha | 32 g/ha | 125 g/ha | 500 g/ha | 125 g/ha | 250 g/ha | * (Where herbicidal activity was evident but 80% inhibition was not achieved at the highest rate tested (typically 1000 g/ha), an asterisk (*) is shown) | 750 g/ha | * (Where herbicidal activity was evident but 80% inhibition was not achieved at the highest rate tested (typically 1000 g/ha), an asterisk (*) is shown) | 750 g/ha | 750 g/ha |
| Cc1ccc(C)c(C(=O)NC(C)CNC(=O)c2cccc(C(F)(F)F)c2)c1 (stereo not drawn) [Example 64] | 250 g/ha | 250 g/ha | 250 g/ha | 1000 g/ha | 1000 g/ha | 250 g/ha | 250 g/ha | 250 g/ha | 250 g/ha |  | 1000 g/ha | 500 g/ha | * (Where herbicidal activity was evident but 80% inhibition was not achieved at the highest rate tested (typically 1000 g/ha), an asterisk (*) is shown) | 500 g/ha | 500 g/ha |
| Cc1cccc(C(=O)NC(C)CNC(=O)c2cccc(C(F)(F)F)c2)c1C (stereo not drawn) [Example 67] |  | 500 g/ha | 500 g/ha | 500 g/ha | 750 g/ha | 250 g/ha | 500 g/ha | 500 g/ha | 500 g/ha | 1000 g/ha | * (Where herbicidal activity was evident but 80% inhibition was not achieved at the highest rate tested (typically 1000 g/ha), an asterisk (*) is shown) | 500 g/ha |  | 1000 g/ha |  |
| C[C@H](CNC(=O)c1cccc(C(F)(F)F)c1)NC(=O)Oc1cccc(C(F)(F)F)c1 [Example 229, R—N-[1-methyl-2-(3-trifluoromethyl)phenylcarbonylamino]ethyl-3-(trifluoromethyl)phenylcarbamate] | 1000 g/ha | 300 g/ha | 300 g/ha | phyto | phyto | 300 g/ha | 300 g/ha | 1000 g/ha | 100 g/ha | phyto | phyto | * (Where herbicidal activity was evident but 80% inhibition was not achieved at the highest rate tested (typically 1000 g/ha), an asterisk (*) is shown) | phyto |  | phyto |
